Paper PMC10147685, “Safety, tolerability, and pharmacokinetics of Aurora kinase B inhibitor AZD2811: a phase 1 dose-finding study in patients with advanced solid tumours” (British Journal of Cancer, 2023)

What was measured:
advanced solid tumours = assay: Preliminary antitumour activity (RECIST v1.1 best overall response); format: in vivo, human
Protocol: (§1) AEs were assessed throughout the treatment and follow-up periods. Patients were followed until all treatment-related toxicity resolved, or for at least 30 days post-study drug discontinuation. AEs were graded according to CTCAE v4.03. Venous blood samples (4 mL) for measurement of AZD2811 concentrations were collected at Cycle 1 Days 1–6, 8, 15, 16, and 22 and Cycle 2 Day 1 in Cohorts 1–6; Cycle 1 Days 1, 4, 8, 12, and 22 in Cohort 7; Cycle 1 Days 1, 4, 8, 12, and 15 and Cycle 2 Day 1 in Cohorts 8–12. Tumour imaging assessments using computed tomography or magnetic resonance imaging of the chest and abdomen/pelvis were performed at screening (≤28 days prior to initiation of treatment), and then every 2 cycles.
The primary objective was to evaluate the safety profile and determine the MTD/RP2D and schedule of AZD2811 by assessing the incidence of DLTs, AEs, and abnormal laboratory test results. Secondary objectives were evaluation of PK parameters and preliminary assessment of antitumour activity, including objective response rate (ORR [complete response + partial response (CR + PR)]) based on RECIST v1.1, and incidence of best overall response, stable disease (SD) and progressive disease (PD).
(§2) The safety analysis set comprised all patients who received at least one dose of AZD2811. The PK analysis set comprised all patients who received at least one dose of AZD2811 with at least one reportable concentration. […] There was no formal statistical analysis of safety and efficacy data. The numbers of patients experiencing each AE were summarised by Medical Dictionary for Regulatory Activities (MedDRA) version 22.1 system organ class, MedDRA preferred term, and CTCAE grade. The ORR and best overall response based on RECIST 1.1 were summarised. AZD2811 blood concentrations and derived PK parameters were summarised by dose regimen. Summary statistics were calculated for area under the curve (AUC), time of maximum concentration (tmax), and maximum concentration after a single dose (Cmax).

[1] = system: animal models of SCLC and diffuse large B-cell lymphoma (DLBCL); parameters: method as in PMID 26865565, PMID 30872381; conditions: at half the dose intensity of barasertib; cited from earlier work
LS- or ES-SCLC = conditions: cited from earlier work
[2] = system: patients with advanced solid tumours; assay: Phase 1 dose-escalation: safety, DLTs, AEs (CTCAE v4.03); format: in vivo
Protocol: AZD2811 was administered as an IV infusion over 2 h. The study included 12 dose-escalation cohorts. In Cohorts 1–6, dosing took place on Days 1 and 4 of a 28-day cycle, at 15 mg, 25 mg, 38 mg, 51 mg, 100 mg, and 200 mg. In Cohort 1, the starting dose was to be administered to a single patient on Days 1 and 4. […] Starting with Cohort 2, at least 3 evaluable patients were enrolled at each dose level (3 + 3 design) and were evaluated for 1 cycle before escalation to the next dose level. If one patient experienced a DLT, an additional 3 patients were treated with the same dose. Therefore, a maximum of 6 evaluable patients could be enrolled per dose level.
In Cohort 7, the Day 4 dose was removed from the schedule, and patients received AZD2811 200 mg on Day 1 of a 28-day cycle. Granulocyte colony-stimulating factor (G-CSF; filgrastim [short-acting G-CSF] or pegfilgrastim [long-acting G-CSF]) as primary prophylaxis for neutropenia was optional in Cohorts 7–9. In Cohorts 8–12, the cycle length was reduced, so dosing occurred on Day 1 of a 21-day cycle, at doses of 200–600 mg. Patients in Cohorts 10–12 received mandatory G-CSF on Day 8 after dosing in Cycle 1 as primary prophylaxis for neutropenia. PEGylated G-CSF (e.g. pegfilgrastim) could not be given later than Day 8 (in a 21-day cycle) due to its long half-life. G-CSF had to be discontinued at least 48 h prior to the next dose of AZD2811.
A DLT was defined as any of the following toxicities that occurred during the DLT evaluation period (the first 28 days [if a 28-day cycle] or the first 21 days [if a 21-day cycle] from the start of AZD2811), unless unequivocally due to underlying malignancy or an extraneous cause: grade 4 neutropenia for >7 days or febrile neutropenia; grade 4 thrombocytopenia or grade 3 thrombocytopenia associated with bleeding; concurrent grade ≥3 elevation of total bilirubin, alanine aminotransferase (ALT), aspartate aminotransferase (AST) or alkaline phosphatase (ALP) lasting >48 h, or any change in liver function test results consistent with Hy’s Law; any grade ≥3 non-haematological AE (except grade 3 nausea, vomiting, stomatitis and/or diarrhoea that was controlled within 4 days with standard supportive care, or grade 3 elevations in ALT/AST that return to meet initial eligibility criteria within 7 days of study drug interruption); inability to receive all doses in Cycle 1 due to treatment-related toxicity; or grade ≥2 non-haematological toxicity at any time during treatment that was deemed to be dose-limiting by the investigator and the medical monitor.
as §1
as §2, with “Summary statistics were calculated for area under the curve (AUC), time of maximum concentration (tmax), and maximum concentration after a single dose (Cmax).” left out

In the case of `CCN(CCO)CCCOc1ccc2c(Nc3cc(CC(=O)Nc4cccc(F)c4)n[nH]3)ncnc2c1` [AZD2811, AZD1152 hydroxyquinazoline pyrazole anilide], the “Duration of SD” value (advanced solid tumours; 1 patient with cancer of pancreaticobiliary origin in Cohort 8) is reported as 66 weeks, the “Treatment discontinuation due to progressive disease” value (advanced solid tumours; Cohorts 1–6) is reported as 83.3% and the “Treatment discontinuation due to progressive disease” value (advanced solid tumours; Cohorts 7–12) is reported as 81.5%. For the same compound, the “Best overall response: Not evaluable” value (advanced solid tumours; Total (N = 51)) was 5 (9.8) n (%), the “Best overall response: Not evaluable, Incomplete post-baseline assessments” value (advanced solid tumours; Total (N = 51)) was 4 (7.8) n (%) and the “Best overall response: Not evaluable, Stable disease <2 cycles” value (advanced solid tumours; Total (N = 51)) was 1 (2.0) n (%). The “Best overall response: Progressive disease” value (advanced solid tumours; Total (N = 51)) was 22 (43.1) n (%), the “Best overall response: Progressive disease, Death” value (advanced solid tumours; Total (N = 51)) was 3 (5.9) n (%) and the “Best overall response: Progressive disease, RECIST progression” value (advanced solid tumours; Total (N = 51)) was 19 (37.3) n (%). For the same compound, the “Best overall response: Stable disease ≥2 cycles” value (advanced solid tumours; Total (N = 51), two cycles = 56 days in 28-day cycles, 42 days in 21-day cycles) was 23 (45.1) n (%), the “Complete responses (CRs)” value (advanced solid tumours; all cohorts) was “no CRs” and the “Best overall response: partial response, patients” value (advanced solid tumours; all cohorts, n = 1 of 51) was 2.0%. The “Best overall response: Partial response” value (advanced solid tumours; evaluable-for-efficacy analysis set, Total (N = 51), all cohorts) was 1 (2.0) n (%), the “Longest duration of therapy” value (advanced solid tumours; patient with adenocarcinoma of the breast in Cohort 7, best overall response SD) was > 17 months and the “Reduction from baseline in sum of target lesion diameters” value (advanced solid tumours; patient with prostate cancer in Cohort 6 with a PR) was 80%. The “Efficacy and toxicity compared with barasertib” value [1] was “greater efficacy and less toxicity”, the “Patients with SD” value (LS- or ES-SCLC; 200 mg AZD2811 on Days 1 and 4 every 28 days, 5/15 patients) was 33.3% and the Objective responses (LS- or ES-SCLC; 200 mg AZD2811 on Days 1 and 4 every 28 days, 15 patients) was “no objective responses”. For the same compound, the “Septic shock due to pneumonia with grade 4 neutropenia, patients” value (LS- or ES-SCLC; without prophylactic G-CSF, 1 of 15 patients) was 6.7%, the “Febrile neutropenia, patients” value (LS- or ES-SCLC; without prophylactic G-CSF, 6 of 15 patients) was 40.0% and the “Target-related grade ≥3 neutropenia, patients” value (LS- or ES-SCLC; without prophylactic G-CSF, 9/15 patients) was 60.0%. For the same compound, the MTD/RP2D ([2]; Day 1 of a 21-day cycle with mandatory G-CSF on Day 8) was 500 mg, the “Dose reduction due to AZD2811-related AEs, patients” value ([2]; human, in vivo) was 4.5% and the “Dose reductions due to AZD2811-related AEs, patients” value ([2]; human, in vivo) was 17.2%. The “Doses at which ANC counts <500 cells/μL were observed” value ([2]; human, in vivo) was ≥ 200 mg/cycle, the “Doses that elicit a pharmacological response in bone marrow” value ([2]; human, in vivo) was > 200 mg/cycle and the Neutropenia ([2]; in vivo) was “not observed”. The “Patients with dose-limiting toxicities” value ([2]; in vivo) was “Five” and the “Deaths due to AEs on treatment” value ([2]; not considered related to AZD2811: cardiac arrest (Cohort 9), sepsis (Cohort 11)) was “Two”.
